≈ marks a conversion by molar mass, not a printed value.
Legend:
Format in all cases: functional
[1] = system: Staphylococcus aureus; test: Antibacterial activity against Staphylococcus aureus 4299 assessed as inhibition of bacterial growth
[2] = system: Staphylococcus saprophyticus; test: Antibacterial activity against Staphylococcus saprophyticus ATCC 15305 assessed as inhibition of bacterial growth
[3] = system: Staphylococcus aureus; test: Antibacterial activity against methicilin-resistant Staphylococcus aureus 42412 assessed as inhibition of bacterial growth
[4] = system: Staphylococcus aureus; test: Antibacterial activity against methicilin-resistant Staphylococcus aureus 21455 assessed as inhibition of bacterial growth
[5] = system: Bacillus cereus; test: Antibacterial activity against Bacillus cereus ATCC 11788 assessed as inhibition of bacterial growth
[6] = system: Enterococcus faecium; test: Antibacterial activity against Vancomycin-resistant Enterococcus […] ATCC 700802 assessed as inhibition of bacterial growth
[7] = system: Enterococcus faecium; test: Antibacterial activity against Vancomycin-resistant Enterococcus faecium 1014 assessed as inhibition of bacterial growth
[8] = system: Staphylococcus aureus; test: Antibacterial activity against methicilin-resistant Staphylococcus aureus 1003 assessed as inhibition of bacterial growth
[9] = system: Staphylococcus saprophyticus; test: Antibacterial activity against Staphylococcus saprophyticus ATCC 49453 assessed as inhibition of bacterial growth
[10] = system: Enterococcus faecium; test: Antibacterial activity against Vancomycin-resistant Enterococcus […] ATCC 29212 assessed as inhibition of bacterial growth; conditions: Enterococcus faecalis
[11] = system: Staphylococcus aureus; test: Antibacterial activity against Staphylococcus aureus 29213 assessed as inhibition of bacterial growth
[12] = system: Staphylococcus saprophyticus; test: Antibacterial activity against Staphylococcus saprophyticus ATCC BAA 750 assessed as inhibition of bacterial growth
[13] = system: Staphylococcus epidermidis; test: Antibacterial activity against Staphylococcus epidermidis 12228 assessed as inhibition of bacterial growth
[14] = system: Staphylococcus saprophyticus; test: Antibacterial activity against Staphylococcus saprophyticus ATCC 49907 assessed as inhibition of bacterial growth
[15] = system: Staphylococcus aureus; test: Antibacterial activity against methicilin-resistant Staphylococcus aureus ATCC 700699 assessed as inhibition of bacterial growth
[16] = system: Bacillus subtilis; test: Antibacterial activity against Bacillus subtilis ATCC 6633 assessed as inhibition of bacterial growth

SMILES | MIC [1] [µg/mL] | MIC [2] [µg/mL] | MIC [3] [µg/mL] | MIC [4] [µg/mL] | MIC [5] [µg/mL] | MIC [6] [µg/mL] | MIC [7] [µg/mL] | MIC [8] [µg/mL] | MIC [9] [µg/mL] | MIC [10] [µg/mL] | MIC [11] [µg/mL] | MIC [12] [µg/mL] | MIC [13] [µg/mL] | MIC [14] [µg/mL] | MIC [15] [µg/mL] | MIC [16] [µg/mL]
CC[C@H](C)[C@H](NC(=O)[C@@H](Cc1ccccc1)NC)C(=O)N[C@@H](CO)C(=O)N[C@H](CCCNC(=N)N)C(=O)N[C@@H](C(=O)N[C@H](C(=O)N[C@@H](CO)C(=O)N[C@H]1C(=O)N[C@@H](CCCNC(=N)N)C(=O)N[C@@H](C2CCCCC2)C(=O)N[C@@H]([C@@H](C)CC)C(=O)O[C@H]1C)[C@@H](C)CC)[C@@H](C)CC | 0.5 (≈ 0.373 µM) | < 0.063 | 0.125 (≈ 0.0932 µM) | 0.25 (≈ 0.186 µM) | 1 (≈ 0.746 µM) | 1 (≈ 0.746 µM) | 1 (≈ 0.746 µM) | 0.5 (≈ 0.373 µM) | 0.063 (≈ 0.047 µM) | 1 (≈ 0.746 µM) | 0.5 (≈ 0.373 µM) | 0.125 (≈ 0.0932 µM) | 0.063 (≈ 0.047 µM) | 0.063 (≈ 0.047 µM) | 0.5 (≈ 0.373 µM) | 0.063 (≈ 0.047 µM)
CCC[C@@H]1NC(=O)[C@H](CCCNC(=N)N)NC(=O)[C@H](NC(=O)[C@H](CO)NC(=O)[C@@H](NC(=O)[C@H](NC(=O)[C@@H](CCCNC(=N)N)NC(=O)[C@H](CO)NC(=O)[C@@H](NC(=O)[C@@H](Cc2ccccc2)NC)[C@@H](C)CC)[C@@H](C)CC)[C@@H](C)CC)[C@H](C)OC(=O)[C@H]([C@@H](C)CC)NC1=O | 0.063 (≈ 0.0484 µM) | 0.063 (≈ 0.0484 µM) | 0.125 (≈ 0.0961 µM) | 0.5 (≈ 0.384 µM) | 1 (≈ 0.769 µM) | 1 (≈ 0.769 µM) | 2 (≈ 1.54 µM) | 1 (≈ 0.769 µM) | 0.063 (≈ 0.0484 µM) | 2 (≈ 1.54 µM) | 0.25 (≈ 0.192 µM) | 0.063 (≈ 0.0484 µM) | 0.063 (≈ 0.0484 µM) | 0.063 (≈ 0.0484 µM) | 0.5 (≈ 0.384 µM) | 0.5 (≈ 0.384 µM)
CCCCCCCCCC(=O)N[C@@H](Cc1c[nH]c2ccccc12)C(=O)N[C@H](CC(N)=O)C(=O)N[C@@H](CC(=O)O)C(=O)N[C@@H]1C(=O)NCC(=O)N[C@@H](CCCN)C(=O)N[C@@H](CC(=O)O)C(=O)N[C@H](C)C(=O)N[C@@H](CC(=O)O)C(=O)NCC(=O)N[C@H](CO)C(=O)N[C@@H]([C@H](C)CC(=O)O)C(=O)N[C@@H](CC(=O)c2ccccc2N)C(=O)O[C@@H]1C | 0.25 (≈ 0.154 µM) | 0.125 (≈ 0.0771 µM) | 1 (≈ 0.617 µM) | 0.5 (≈ 0.309 µM) | 0.125 (≈ 0.0771 µM) | 1 (≈ 0.617 µM) | 2 (≈ 1.23 µM) | 2 (≈ 1.23 µM) | 0.125 (≈ 0.0771 µM) | 1 (≈ 0.617 µM) | 0.25 (≈ 0.154 µM) | 0.125 (≈ 0.0771 µM) | 0.125 (≈ 0.0771 µM) | 0.125 (≈ 0.0771 µM) | 2 (≈ 1.23 µM) | 0.125 (≈ 0.0771 µM)
CC[C@H](C)[C@H](NC(=O)[C@@H](Cc1ccccc1)NC)C(=O)N[C@@H](CCCNC(=N)N)C(=O)N[C@H](CCC(N)=O)C(=O)N[C@@H](C(=O)N[C@H](C(=O)N[C@@H](CO)C(=O)N[C@H]1C(=O)N[C@@H](CCCNC(=N)N)C(=O)N[C@@H](C2CCCCC2)C(=O)N[C@@H]([C@@H](C)CC)C(=O)O[C@H]1C)[C@@H](C)CC)[C@@H](C)CC | 0.063 (≈ 0.0456 µM) | < 0.063 | 0.063 (≈ 0.0456 µM) | 0.5 (≈ 0.362 µM) | 1 (≈ 0.724 µM) | 1 (≈ 0.724 µM) | 1 (≈ 0.724 µM) | 0.5 (≈ 0.362 µM) | 0.063 (≈ 0.0456 µM) | 1 (≈ 0.724 µM) | 0.25 (≈ 0.181 µM) | < 0.063 | 0.063 (≈ 0.0456 µM) | 0.063 (≈ 0.0456 µM) | 0.5 (≈ 0.362 µM) | 0.063 (≈ 0.0456 µM)
CC[C@H](C)[C@H](NC(=O)[C@@H](Cc1ccccc1)NC)C(=O)N[C@@H](CO)C(=O)N[C@H](CCC(N)=O)C(=O)N[C@@H](C(=O)N[C@H](C(=O)N[C@@H](CO)C(=O)N[C@H]1C(=O)N[C@@H](CCCNC(=N)N)C(=O)N[C@@H](C2CCCCC2)C(=O)N[C@@H]([C@@H](C)CC)C(=O)O[C@H]1C)[C@@H](C)CC)[C@@H](C)CC | 0.063 (≈ 0.048 µM) | < 0.063 | 0.063 (≈ 0.048 µM) | 0.5 (≈ 0.381 µM) | 0.25 (≈ 0.19 µM) | 0.5 (≈ 0.381 µM) | 0.25 (≈ 0.19 µM) | 0.125 (≈ 0.0952 µM) | 0.125 (≈ 0.0952 µM) | 1 (≈ 0.762 µM) | 0.063 (≈ 0.048 µM) | 0.063 (≈ 0.048 µM) | 0.063 (≈ 0.048 µM) | 0.063 (≈ 0.048 µM) | 0.5 (≈ 0.381 µM) | 0.063 (≈ 0.048 µM)
COc1c(N2C[C@@H]3CCCN[C@@H]3C2)c(F)cc2c(=O)c(C(=O)O)cn(C3CC3)c12 [MOXIFLOXACIN] | 0.125 (≈ 0.311 µM) | 0.25 (≈ 0.623 µM) | 4 (≈ 9.96 µM) | 4 (≈ 9.96 µM) | 0.125 (≈ 0.311 µM) | 0.25 (≈ 0.623 µM) | 16 (≈ 39.9 µM) | 4 (≈ 9.96 µM) | 0.25 (≈ 0.623 µM) | 0.25 (≈ 0.623 µM) | 0.063 (≈ 0.157 µM) | 0.25 (≈ 0.623 µM) | 0.063 (≈ 0.157 µM) | 0.125 (≈ 0.311 µM) | 4 (≈ 9.96 µM) | 0.031 (≈ 0.0772 µM)
